# Literature values as cited in paper PMC7395068, “The evolution of strategies to minimise the risk of human drug-induced liver injury (DILI) in drug discovery and development” (Archives of Toxicology, 2020).
# Like-named read-outs stand apart in the source and are kept apart here.
# Columns and labels:
# [1] = cited from earlier work
# [2] = test system: isolated mouse liver mitochondria; details: cited from earlier work
# [3] = ref Chen 2016; cited from earlier work
# [4] = test system: primary human hepatocytes, NIH3T3 fibroblasts, BSEP, CYP3A4; details: cited from earlier work
# human hepatocytes = details: cited from earlier work
# [5] = test system: THLE or HepG2 cells, isolated mitochondria, BSEP; details: cited from earlier work
# [6] = In vitro Assay, ref Porceddu 2012
# [7] = isolated mouse liver mitochondria, EC20<=2uM, ref Porceddu 2012
# [8] = In vitro Assay, ref Schadt 2015
compound,measurement,setting,value
C[C@@H]1O[C@@H](OC[C@H]2O[C@@H](Oc3c(-c4ccc(OCCO)c(OCCO)c4)oc4cc(OCCO)cc(O)c4c3=O)[C@H](O)[C@@H](O)[C@@H]2O)[C@H](O)[C@H](O)[C@H]1O [Troxerutin],In vivo DILI,[1]; ref Porceddu 2012,-VE
same,in vitro data EC2<=1x Cmax,[2]; [6],-VE
same,in vitro data EC20<=2uM,[2]; [6],+VE
CCOC(=O)c1ccc(O)cc1 [Ethyl paraben],in vitro data EC20<=2uM,[2],-VE
O=c1c(-c2ccc(O)cc2)coc2cc(O)cc(O)c12 [genistein],In vivo DILI,[1]; in vivo,-VE
same,in vitro data EC20<=2uM,[2],+VE
Cc1c(N(C)CS(=O)(=O)[O-])c(=O)n(-c2ccccc2)n1C.[Na+] [dipyrone],in vitro data EC20<=2uM,[2],+VE
COc1cc(CNC(=O)CCCC/C=C/C(C)C)ccc1O [Capsaicin],In vivo DILI,[1]; ref Porceddu 2012,-VE
same,in vitro data EC2<=1x Cmax,[2]; [6],-VE
same,in vitro data EC20<=2uM,[2]; [6],+VE
Cc1c(Cl)cccc1Nc1ccccc1C(=O)O [Tolfenamic acid],In vivo DILI,[1]; ref Porceddu 2012,+VE
same,in vitro data EC2<=1x Cmax,[2]; [6],+VE
same,in vitro data EC20<=2uM,[2]; [6],+VE
CCCc1nc2c(C)cc(-c3nc4ccccc4n3C)cc2n1Cc1ccc(-c2ccccc2C(=O)O)cc1 [telmisartan],"DILI +VE (5-8), DILI -VE (-4)",[3],+VE
same,DILI severity category,[3],vLess-DILI-Concern
same,Cellular toxicity (3T3 cells),[4],-VE
same,Combined Assay,[4],+VE
same,GSH adduct HML,[4],-VE
same,Hepatocyte cellular toxicity,[4],+VE
same,MitoTox 3T3,[4],-VE
same,TDI CYP3A4,[4],-VE
same,hBSEP inhibition,[4],+VE
same,Structural based (HCI),"human hepatocytes; In vitro Assay, ref Xu 2008",-VE
same,Partition Hybrid HRM Score,"[5]; In vitro Assay, ref Aleo 2019",+VE
same,Ro2 Hybrid HRM Score,"[5]; In vitro Assay, ref Aleo 2019",+VE
same,In vivo DILI,[1]; ref Aleo 2019,+VE
same,In vivo DILI,[1]; ref Schadt 2015,-VE
same,In vivo DILI,[1]; ref Xu 2008,-VE
COc1cc2c(c(OC)c1OC)-c1ccc(OC)c(=O)cc1[C@@H](NC(C)=O)CC2 [colchicine],Cellular toxicity (3T3 cells),[4],+VE
same,Combined Assay,[4],-VE
same,GSH adduct HML,[4],-VE
same,Hepatocyte cellular toxicity,[4],-VE
same,MitoTox 3T3,[4],-VE
same,TDI CYP3A4,[4],-VE
same,hBSEP inhibition,[4],-VE
same,Structural based (HCI),human hepatocytes,-VE
same,Partition Hybrid HRM Score,[5],-VE
COc1cc(/C=C/C(=O)CC(=O)/C=C/c2ccc(O)c(OC)c2)ccc1O [Curcumin],in vitro data EC2<=1x Cmax,[2]; [6],-VE
O=C(O)c1cc(O)c(O)c(O)c1 [Gallic acid],in vitro data EC2<=1x Cmax,[2]; [6],+VE
Cc1cc2nc3c(=O)[nH]c(=O)nc-3n(C[C@H](O)[C@H](O)[C@H](O)CO)c2cc1C [riboflavin],in vitro data EC2<=1x Cmax,[2]; [6],-VE
Oc1ccc(/C=C/c2cc(O)cc(O)c2)cc1 [Resveratrol],in vitro data EC2<=1x Cmax,[2]; [6],-VE
OC[C@H]1O[C@@](CO)(O[C@H]2O[C@H](CO)[C@@H](O)[C@H](O)[C@H]2O)[C@@H](O)[C@@H]1O [Sucrose],in vitro data EC20<=2uM,[2],-VE
NCCS(=O)(=O)O [taurine],in vitro data EC20<=2uM,[2]; [7],-VE
CC1(C)S[C@@H]2[C@H](NC(=O)[C@H](N)c3ccccc3)C(=O)N2[C@H]1C(=O)O [ampicillin],in vitro data EC2<=1x Cmax,[2]; [6],+VE
C[C@H]1O[C@@H](O[C@H]2[C@@H](O)C[C@H](O[C@H]3[C@@H](O)C[C@H](O[C@H]4CC[C@@]5(C)[C@H](CC[C@@H]6[C@@H]5C[C@@H](O)[C@]5(C)[C@@H](C7=CC(=O)OC7)CC[C@]65O)C4)O[C@@H]3C)O[C@@H]2C)C[C@H](O)[C@@H]1O [digoxin],Cellular toxicity (3T3 cells),[4]; [8],-VE
same,Combined Assay,[4]; [8],-VE
same,GSH adduct HML,[4]; [8],-VE
same,Hepatocyte cellular toxicity,[4]; [8],-VE
same,MitoTox 3T3,[4]; [8],-VE
same,TDI CYP3A4,[4]; [8],-VE
same,hBSEP inhibition,[4]; [8],-VE
same,Structural based (HCI),"human hepatocytes; In vitro Assay, ref Xu 2008",-VE
same,Ro2 Hybrid HRM Score,"[5]; In vitro Assay, ref Aleo 2019",-VE
same,Partition Hybrid HRM Score,[5],-VE
O=C(/C=C/c1ccc(O)c(O)c1)c1ccc(O)cc1O [Butein],in vitro data EC20<=2uM,[2]; [7],+VE
Cc1cn(-c2cc(NC(=O)c3ccc(C)c(Nc4nccc(-c5cccnc5)n4)c3)cc(C(F)(F)F)c2)cn1 [nilotinib],in vitro data EC2<=1x Cmax,[2]; [6],+VE
Nc1c(Br)cc(Br)cc1CN[C@H]1CC[C@H](O)CC1 [Ambroxol],in vitro data EC2<=1x Cmax,[2]; [6],-VE
Oc1cc(O)cc(O)c1 [Phloroglucinol],in vitro data EC20<=2uM,[2]; [7],-VE
